Data published in US20020106384A1, “Cosmetic compositions and methods for lightening the skin” (priority 1999, published 2002).

System: B16-F1 mouse melanoma cells
Assay: B16 F1 melanoma cell based assay for melanogenesis (melanin content in media)
Conditions: for Melanin (% Control) Alone: 72 hours, absorbance at 530 nm, lower = more inhibition
Method: The ability to inhibit melanin production was assessed using B16 cells, a mouse melanoma cell line.
B16-F1 mouse melanoma cells (obtained from American Type Culture Collection, MD, USA) were maintained in 75 cm^2 culture flasks in RPMI 1640 medium supplemented with L-glutamine (4 mM) and 10% fetal bovine serum (FBS) at 37° C. in a water-saturated, 5% CO2 in air atmosphere. Sub-confluent B16 cells were seeded in 96 well microtiter plates at a density of 5×10^3 cells/well in 200 μl of DMEM containing 10% FBS and 1% penicillin/streptomycin without phenol red at 37° C. under 5% CO2. After 24 hours, the media was replaced with fresh DMEM media containing various compounds at designated concentrations. Cells were incubated for 72 hours at which time melanin was visible in the control well (dark color) where no testing compounds were added.
The amount of melanin produced for each well was quantified by assessing melanin released into the culture media. The pigment containing media from each well was transferred to a clean 96 well plate and the melanin content was quantified by reading the absorbance at 530 nm. Melanin content in each well was calculated as a percent of the control where cells were maintained in DMEM medium or solvent control.
Melanin content in the media was expressed as percent of control, therefore the lower the value is, the more inhibition resulted from the tested compounds.

| SMILES | Melanin (% Control) Alone (co-active alone at 2 mM) | Melanin (% Control) Alone (co-active alone at 5 mM) | Melanin (% Control) Alone (co-active alone at 10 mM) | Melanin (% Control) Alone (co-active alone at 15 mM) | inhibitory effects on melanin production (B16 cell assay, dose-dependent) |
| --- | --- | --- | --- | --- | --- |
| NC(=O)c1cccnc1 [Niacinamide] | 94.8 ± 19 % Control | 83.9 ± 16.7 % Control | 66.1 ± 13 % Control | 50.3 ± 10.2 % Control | – |
| N[C@@H](Cc1ccccc1)C(=O)O [L-phenylalanine] | 84.9 ± 16.9 % Control | 48.3 ± 10 % Control | 10 ± 2.7 % Control | 49.7 ± 9.9 % Control | – |
| CC(O)C(=O)O (racemic) [DL-lactic acid] | 103.8 ± 20.5 % Control | 98 ± 19.3 % Control | 79 ± 16.8 % Control | 33.5 ± 7.9 % Control | strong inhibitory effects |
